Target: T1, squalene synthase (Rattus norvegicus, UniProt Q02769)
T1 construct: incubating rat liver homogenate with various concentrations of the test compound; from tissue; host or cells: rat liver homogenate
T1 sequence (Q02769 1-416): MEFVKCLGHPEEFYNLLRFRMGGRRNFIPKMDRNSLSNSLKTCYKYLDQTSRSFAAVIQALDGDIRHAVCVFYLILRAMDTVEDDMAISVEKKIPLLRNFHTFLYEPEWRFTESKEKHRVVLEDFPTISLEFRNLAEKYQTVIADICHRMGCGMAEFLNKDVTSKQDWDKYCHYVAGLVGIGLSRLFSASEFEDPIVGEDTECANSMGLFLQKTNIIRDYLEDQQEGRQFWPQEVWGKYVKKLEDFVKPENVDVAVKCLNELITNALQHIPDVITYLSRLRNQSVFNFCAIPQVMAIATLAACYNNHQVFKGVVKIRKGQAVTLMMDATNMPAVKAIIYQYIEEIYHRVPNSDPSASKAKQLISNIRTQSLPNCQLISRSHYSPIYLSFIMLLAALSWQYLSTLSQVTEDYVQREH
Test: Inhibition of squalene synthase in rat liver homogenate
Format: biochemical
Settings: [2-14C] farnesylpyrophosphate as substrate, 30 minute assay, read-out: IC50 (concentration of compound giving 50% inhibition of [14C] squalene production)
Procedure: Acta, Volume 877, 50-60 (1986) and modified to include measurement of cholesterol by high performance liquid chromatography (h.p.l.c.).
[^14 C] Squalene was separated from unreacted substrate on thin layer chromatography plates and determined by liquid scintillation counting. Inhibition of squalene synthase was quantified by incubating rat liver homogenate with various concentrations of the test compound in the presence of [2-^14 C] farnesylpyrophosphate. The concentration of compound giving 50% inhibition of [^14 C] squalene production in a 30 minute assay was taken as the IC50 value.

Structure (SMILES) | IC50 [nM]
CC[C@H](C)C[C@H](C)/C=C/C(=O)O[C@@H]1[C@@H](O)[C@@]2(CC/C(C)=C/C(C)Cc3ccccc3)O[C@H](C(=O)O)[C@@](O)(C(=O)O)[C@]1(C(=O)O)O2 (some centres unmarked) [Compound A1] | < 100
C=C(CC[C@]12O[C@H](C(=O)O)[C@@](O)(C(=O)O)[C@](C(=O)O)(O1)[C@H](OC(=O)/C=C/[C@@H](C)C[C@@H](C)CC)[C@H]2O)C(NC(C)=O)C(C)Cc1ccccc1 (some centres unmarked) [Compound B1] | < 100
C=C(CC[C@]12O[C@H](C(=O)O)[C@@](O)(C(=O)O)[C@](C(=O)O)(O1)[C@H](OC(=O)/C=C/[C@@H](C)C[C@@H](C)CC)[C@H]2O)[C@@H](O)[C@H](C)Cc1ccccc1 [Compound B, [1S-[1α(4R*,5S*),3α,4β,5α,6α(2E,4R*,6R*),7 β9]1-(4-hydroxy-5-methyl-3-methylene-6-phenylhexyl)-4,6,7-trihydroxy-2,8-dioxabicyclo[3.2.1]octane-3,4,5-tricarboxylic acid, 6-(4,6-dimethyl-2-octenoate)] | < 100
C=C(CC[C@]12O[C@H](C(=O)O)[C@@](O)(C(=O)O)[C@](C(=O)O)(O1)[C@H](OC(=O)/C=C/C(C)(O)CC(C)CC)[C@H]2O)[C@@H](O)[C@H](C)Cc1ccccc1 (some centres unmarked) [Compound C1] | < 100
C=C(CC[C@]12O[C@H](C(=O)OC)[C@@](O)(C(=O)O)[C@](C(=O)O)(O1)[C@H](OC(=O)/C=C/[C@@H](C)C[C@@H](C)CC)[C@H]2O)[C@@H](O)[C@H](C)Cc1ccccc1 [Compound E, [1S-[1α(4R*,5S*),3α,4β,5α,6α(2E,4R*,6R*),7β]]1-(4-hydroxy-5-methyl-3-methylene-6-phenylhexyl)-4,6,7-trihydroxy-2,8-dioxabicyclo[3.2.1]octane-3,4,5-tricarboxylic acid, 6-(4,6-dimethyl-2-octenoate), 3-methyl ester] | < 100
C=C(CC[C@]12O[C@H](C(=O)O)[C@@](O)(C(=O)O)[C@](C(=O)O)(O1)[C@H](OC(=O)/C=C/C(C)CCCC)[C@H]2O)[C@@H](OC(C)=O)[C@H](C)Cc1ccccc1 (some centres unmarked) [Compound G] | < 100
C=C(CC[C@]12O[C@H](C(=O)O)[C@@](O)(C(=O)O)[C@](C(=O)O)(O1)[C@H](OC(=O)/C=C/C(C)=C/C(C)CC)[C@H]2O)[C@@H](OC(C)=O)[C@H](C)Cc1ccccc1 (some centres unmarked) [Compound H] | < 100
C=C(CC[C@]12O[C@H](C(=O)O)[C@@](O)(C(=O)O)[C@](C(=O)O)(O1)[C@H](OC(=O)CC(O)C(C)CC(C)CC)[C@H]2O)[C@@H](OC(C)=O)[C@H](C)Cc1ccccc1 (some centres unmarked) [Compound I] | < 100
C=C(CC[C@]12O[C@H](C(=O)O)[C@@](O)(C(=O)O)[C@](C(=O)O)(O1)[C@H](OC(=O)/C=C/C(C)(O)CC(C)CC)[C@H]2O)[C@@H](OC(C)=O)[C@H](C)Cc1ccccc1 (some centres unmarked) [Compound K] | < 100
C=C(CC[C@]12O[C@H](C(=O)O)[C@@](O)(C(=O)O)[C@](C(=O)O)(O1)[C@H](OC(=O)CC(O)CCC(C)CC)[C@H]2O)[C@@H](OC(C)=O)[C@H](C)Cc1ccccc1 (some centres unmarked) [Compound L] | < 100
C=C(CC[C@]12O[C@H](C(=O)O)[C@@](O)(C(=O)O)[C@](C(=O)O)(O1)[C@H](OC(=O)CC(O)C(C)CC(C)CC)[C@H]2O)[C@@H](O)[C@H](C)Cc1ccccc1 (some centres unmarked) [Compound M] | < 100
C=C(CC[C@]12O[C@H](C(=O)O)[C@@](O)(C(=O)O)[C@](C(=O)O)(O1)[C@H](OC(=O)/C=C/[C@@H](C)C[C@@H](C)CC)[C@H]2O)C(O)C(CO)Cc1ccccc1 (some centres unmarked) [Compound N] | < 100
C=C(CC[C@@]12C[C@@H](OC(=O)/C=C/[C@@H](C)C[C@@H](C)CC)[C@@](C(=O)O)(O1)[C@](O)(C(=O)O)[C@@H](C(=O)O)O2)[C@@H](OC(C)=O)[C@H](C)Cc1ccccc1 [Compound O, [1S-[1α(4R*,5S*),3α,4β,5α,6α(2E,4R*,6R*)]]1-4-acetyloxy-5-methyl-3-methylene-6-phenylhexyl)-4,6-dihydroxy-2,8-dioxabicyclo[3.2.1]octane-3,4,5-tricarboxylic acid, 6-(4,6-dimethyl-2-octenoate)] | < 100
CC[C@H](C)C[C@H](C)/C=C/C(=O)O[C@@H]1[C@@H](O)[C@@]2(CC/C(=C\C(C)Cc3ccccc3)CNC(C)=O)O[C@H](C(=O)O)[C@@](O)(C(=O)O)[C@]1(C(=O)O)O2 (some centres unmarked) [Compound T] | < 100
C=C(CC[C@]12O[C@H](C(=O)O)[C@@](O)(C(=O)O)[C@](C(=O)O)(O1)[C@H](OC(=O)CCC(C)CC(C)CC)[C@H]2O)[C@@H](OC(C)=O)[C@H](C)Cc1ccccc1 (some centres unmarked) [Compound U] | < 100
C=C(CC[C@@]12O[C@H](C(=O)O)[C@@](O)(C(=O)O)[C@@](C(=O)O)(C[C@H]1O)O2)[C@@H](OC(C)=O)[C@H](C)Cc1ccccc1 [Compound V, [1S-[1α(4R*,5S*),3α,4β,5α,7β]]1-(4-acetyloxy-5-methyl-3-methylene-6-phenylhexyl)-4,7-dihydroxy-2,8-dioxabicyclo[3.2.1]octane-3,4,5-tricarboxylic acid] | < 100
C=C(CC[C@]12O[C@H](C(=O)O)[C@@](O)(C(=O)O)[C@](C(=O)O)(O1)[C@H](OC(=O)CC(O)CCC(C)CC)[C@H]2O)[C@@H](O)[C@H](C)Cc1ccccc1 (some centres unmarked) [Compound W] | < 100

Source: US5409950A, “Cyclic ketal derivatives” (Glaxo Group Limited, priority 1991, dated 1995)
